{
  "source": "paper PMC3032312",
  "about": "(Cell Death & Disease, 2010)",
  "key": {"Mcl-1": {"tested_on": "Mcl-1", "details": "displacement of fluorochrome-conjugated BH3 Bid peptide; cited from earlier work"}, "[1]": {"tested_on": "36 selected tumor cell lines", "test": "ATP-Lite cell viability assay", "format": "cell-based, human", "details": "72 h"}, "Bcl-B": {"target": "T1, Bcl-B (Homo sapiens, UniProt Q9HD36)", "T1 sequence (Q9HD36 1-204)": "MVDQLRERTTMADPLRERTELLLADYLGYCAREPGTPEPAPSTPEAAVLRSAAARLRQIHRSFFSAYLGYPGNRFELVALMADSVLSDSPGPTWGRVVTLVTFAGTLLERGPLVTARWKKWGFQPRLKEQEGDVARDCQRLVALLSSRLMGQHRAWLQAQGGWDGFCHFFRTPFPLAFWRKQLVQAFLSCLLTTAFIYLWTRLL", "details": "displacement of fluorochrome-conjugated BH3 Bid peptide; ABT-737; cited from earlier work"}, "Bfl-1": {"tested_on": "Bfl-1", "details": "displacement of fluorochrome-conjugated BH3 Bid peptide; cited from earlier work"}},
  "data": [
    {"smiles": "CN(C)CC[C@H](CSc1ccccc1)Nc1ccc(S(=O)(=O)NC(=O)c2ccc(N3CCN(Cc4ccccc4-c4ccc(Cl)cc4)CC3)cc2)cc1[N+](=O)[O-]", "note": "[ABT-737]", "values": [
      {"measurement": "IC50 values, Mcl-1", "setting": "Mcl-1", "result": "not active"},
      {"measurement": "cell killing effect in six of the studied cell lines", "setting": "[1]; concentration range tested 0.1-30 μM", "result": "no effect"},
      {"measurement": "cytotoxic activity against leukemia/lymphoma lines", "setting": "[1]; leukemia/lymphoma lines, ATP-Lite", "result": "potent cytotoxic activity"},
      {"measurement": "IC50 values, Bcl-B", "setting": "Bcl-B", "result": "not active"},
      {"measurement": "IC50 values, Bfl-1", "setting": "Bfl-1", "result": "not active"}
    ]}
  ]
}
